Source: article PMC6797481, “Identification of an allosteric binding site on the human glycine transporter, GlyT2, for bioactive lipid analgesics” (eLife, 2019)
Where a chain is given by its changes, count along the chain named.

What was measured:
Type in all cases: cell-based
GlyT2 F428A mutant = target: T1, GlyT2 F428A mutant (Homo sapiens, UniProt Q9Y345, F428A); experiment: Glycine transport currents, two electrode voltage clamp, oocytes expressing GlyT2 F428A; details: for % Max. inhibition (% inhibition at the highest concentration of inhibitor used): footnote b
T1 construct: expressed in transfected cells; host or cells: Xenopus laevis oocytes (cRNA injection)
T1 sequence (Q9Y345 1-797 F428A): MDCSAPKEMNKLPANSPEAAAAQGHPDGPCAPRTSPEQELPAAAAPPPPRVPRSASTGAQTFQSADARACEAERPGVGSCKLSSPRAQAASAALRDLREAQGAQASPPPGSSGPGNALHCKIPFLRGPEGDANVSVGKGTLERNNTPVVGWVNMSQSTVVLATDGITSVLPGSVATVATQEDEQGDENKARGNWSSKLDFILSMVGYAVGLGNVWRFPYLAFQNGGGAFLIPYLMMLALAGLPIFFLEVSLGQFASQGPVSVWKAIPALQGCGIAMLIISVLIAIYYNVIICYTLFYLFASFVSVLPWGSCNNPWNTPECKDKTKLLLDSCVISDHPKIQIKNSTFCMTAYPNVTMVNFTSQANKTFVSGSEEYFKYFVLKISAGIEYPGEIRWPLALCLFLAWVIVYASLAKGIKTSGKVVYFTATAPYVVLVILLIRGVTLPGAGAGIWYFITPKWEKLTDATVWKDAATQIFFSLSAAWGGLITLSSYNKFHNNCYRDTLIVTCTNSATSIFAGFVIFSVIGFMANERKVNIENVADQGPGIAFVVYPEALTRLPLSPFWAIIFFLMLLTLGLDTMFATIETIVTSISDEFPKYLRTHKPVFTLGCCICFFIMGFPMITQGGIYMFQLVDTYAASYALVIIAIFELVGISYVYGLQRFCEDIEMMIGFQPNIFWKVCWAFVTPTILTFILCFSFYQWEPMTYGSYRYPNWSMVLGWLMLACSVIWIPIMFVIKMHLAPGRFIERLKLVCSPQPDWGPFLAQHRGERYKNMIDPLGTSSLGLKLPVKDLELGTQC
Protocol: (§1) Glycine was first applied to establish maximal transport current.
(§2) Compounds were tested for inhibition of glycine transport on Xenopus laevis oocytes expressing mutant GlyT1 and GlyT2 transporters. n values are in brackets, with measurements taken from at least 2 batches of oocytes.

GlyT2 V432A mutant = target: T2, GlyT2 V432A mutant (Homo sapiens, UniProt Q9Y345, V432A); experiment: Glycine transport currents, two electrode voltage clamp, oocytes expressing GlyT2 V432A; details: for % Max. inhibition: mean ± SEM
T2 construct: expressed in transfected cells; host or cells: Xenopus laevis oocytes (cRNA injection)
T2 sequence (Q9Y345 1-797 V432A): T1 sequence (Q9Y345 1-797 F428A) with A428F, V432A
Protocol: as §1, §2

GlyT2 I545L mutant = target: T3, GlyT2 I545L mutant (Homo sapiens, UniProt Q9Y345, I545L); experiment: Glycine transport currents, two electrode voltage clamp, Xenopus laevis oocytes expressing GlyT2 I545L; details: for % Max. inhibition: mean ± SEM
T3 construct: expressed in transfected cells; host or cells: Xenopus laevis oocytes (cRNA injection)
T3 sequence (Q9Y345 1-797 I545L): T1 sequence (Q9Y345 1-797 F428A) with A428F, I545L
Protocol: as §1, §2

[1] = GlyT2 V432A, greater than maximum concentration applied (footnote a)
[2] = GlyT2 I545L, greater than maximum concentration applied (footnote a)

| Compound | % Max. inhibition (% inhibition at the highest concentration of inhibitor used) (GlyT2 F428A mutant; GlyT2 F428A) | IC50 (GlyT2 V432A mutant; [1]) [µM] | % Max. inhibition (GlyT2 V432A mutant; GlyT2 V432A) | IC50 (GlyT2 F428A mutant; GlyT2 F428A) [µM] | IC50 (GlyT2 I545L mutant; [2]) [µM] | % Max. inhibition (GlyT2 I545L mutant; GlyT2 I545L) | also measured |
| --- | --- | --- | --- | --- | --- | --- | --- |
| NCC(=O)O [Glycine] |  |  |  |  |  |  | EC50 (GlyT2 F428A mutant; glycine transport, GlyT2 F428A (TM5)): 6.2 ± 0.4 µM; EC50 (GlyT2 V432A mutant; glycine transport, GlyT2 V432A (TM5)): 114 ± 21.6 µM |
| CCCCC/C=C\C/C=C\C/C=C\C/C=C\CCCC(=O)NCC(=O)O [N-arachidonyl Glycine, reference compound] | 64.7 ± 6.6^b (p=0.9998) % | > 10 | 4.2 ± 3.2 (p=0.0018) % |  |  |  | IC50 (GlyT2 F428A mutant; GlyT2 F428A, mean (95% CI)): 14.4 µM |
| CCCCCCCC/C=C\CCCCCCCC(=O)NCC(=O)O [N-oleoyl Glycine, reference compound] |  | > 10 |  | > 10 |  |  | % Max. inhibition (GlyT2 F428A mutant; GlyT2 F428A, mean ± SEM): 25.4 ± 4.9 (p=0.0001) %; % Max. inhibition (% inhibition at the highest concentration of inhibitor used) (GlyT2 V432A mutant; GlyT2 V432A, footnote b): 1.9 ± 3.2^b (p=0.0001) % |
| CCCCCCCC/C=C\CCCCCCCC(=O)O[C@H](CC(=O)[O-])C[N+](C)(C)C [oleoyl L-Carnitine, reference compound] | 22.7 ± 3.0^b (p=0.0001) % | > 3 | 6.0 ± 3.2 (p=0.0001) % | > 3 |  |  |  |
| CCCCCCCC/C=C\CCCCCCCC(=O)N[C@@H](CC(=O)O)C(=O)O [oleoyl l-Aspartate] |  |  |  |  | > 10 | 4.9 ± 6.4 (p=0.0001) % |  |
| CCCCCCCC/C=C\CCCCCCCC(=O)N[C@@H](CCCCN)C(=O)O [oleoyl l-Lysine] | 39.2 ± 2.3^b (p=0.0001) % |  | 71.9 ± 1.9 (p=0.0001) % | > 3 |  | 80.7% | fold lower potency at I545L (GlyT2 I545L mutant; GlyT2 I545L compared with WT GlyT2): ~ 17 fold; IC50 (GlyT2 I545L mutant; GlyT2 I545L, mean (95% CI)): 0.443 µM; IC50 (GlyT2 V432A mutant; GlyT2 V432A, mean (95% CI)): 0.0684 µM |
| CCCCCCCC/C=C\CCCCCCCC(=O)N[C@@H](Cc1c[nH]c2ccccc12)C(=O)O [oleoyl l-Tryptophan] |  |  |  |  | > 10 | 20.2 ± 1.7 (p=0.0001) % |  |
| CCCCCCCC/C=C\CCCCCCCC(=O)N[C@H](C(=O)O)C(C)C [oleoyl l-Valine] |  |  |  |  | > 10 |  | % Max. inhibition (% inhibition at the highest concentration of inhibitor used) (GlyT2 I545L mutant; GlyT2 I545L, footnote b): 22.5 ± 8.0^b (p=0.0001) % |
